Assay [1] relates to Brain CSCs. The assay is described as follows: cell viability, trypan blue, Vi-CELL analyzer. As to conditions: 48 h. The class given is cell-based. As to the method:
Brain CSCs were treated with resveratrol (0-20 μM), curcumin (0-20 μM), honokiol (0-20 μM) and diallyl trisulphide (0-10 μM) for 3 days, and cell viability was measured by staining with trypan blue using Vi-CELL analyzer (Beckman Counter).
Brain CSCs were treated with sulforaphane (0-20 μM), rottlerin (0-1 μM), EGCG (0-40 μM) and embelin (0-5 μM) for 48 h, and cell viability was measured by staining with trypan blue using Vi-CELL analyzer (Beckman Counter).
Brain CSCs were treated with resveratrol (0-20 μM), curcumin (0-20 μM) honokiol (0-20 μM), and diallyl trisulphide (0-10 μM) for 3 days and cell viability was measured by staining with trypan blue using Vi-CELL analyzer. The results of those studies are illustrated in FIG. 23.
Brain CSCs were treated with sulforaphane (0-20 μM), rottlerin (0-1 μM), EGCG (0-40 μM), and embelin (0-5 μM) for 48 hours and cell viability was measured by staining with trypan blue using Vi-CELL analyzer. The results of those studies are illustrated in FIG. 24.

Assay [2] concerns Pancreatic CSCs. The assay is described as follows: spheroid formation and cell viability in spheroids (trypan blue). The class given is cell-based, human. As to conditions: for cell viability in spheroids: EGCG 0-60 μM with or without quercetin 20 μM. As to the method:
(A) Pancreatic CSCs were grown in six-well ultralow attachment plates (Corning Inc., Corning, N.Y.) at a density of 1,000 cells/ml in DMEM supplemented with 1% N2 Supplement (Invitrogen), 2% B27 Supplement (Invitrogen), 20 ng/ml human platelet growth factor (Sigma-Aldrich), 100 ng/ml EGF (Invitrogen) and 1% antibiotic-antimycotic (Invitrogen) at 37° C. in a humidified atmosphere of 95% air and 5% CO2 and treated with rottlerin (0-2 μM) for 7 days to obtain primary spheroids. At the end of incubation period, spheroids were collected, reseeded and treated with rottlerin for another week to obtain secondary spheroids. (B) Cell viability in spheroids was measured by trypan blue assay at the end of 7 and 14 days from the above experiment.
(§1) (A) Pancreatic CSCs were seeded in suspension and treated with EGCG (0-60 μM) for 7 days. Pictures of spheroids formed in suspension were taken by a microscope. (B) Pancreatic CSCs were seeded in suspension and treated with EGCG (0-60 μM) for 7 days. At the end of incubation period, spheroids were collected, and dissociated with Accutase (Innovative Cell Technologies, Inc.). For secondary spheroids, cells were reseeded and treated with EGCG (0-60 μM) for 7 days. Cell viability was measured by trypan blue assay. […] Pancreatic CSCs were seeded in soft agar and treated with various doses of EGCG and incubated at […] for 21 days. At the end of incubation period, colonies were counted.
(A) Pancreatic CSCs were treated with EGCG (0-60 μM) for 36 h. At the end of incubation period, cells were harvested and the expression of Nanog, Sox-2, c-Myc and Oct-4 was measured by the q-RT-PCR. […] Pancreatic CSCs were transduced with either scrambled shRNA or Nanog shRNA expressing lentiviral vector (pLKO.1), and cell lysates were collected and western blot analysis was performed using anti-Nanog antibody (data not shown). CSC/scrambled and CSC/Nanog shRNA were seeded as described above and treated with EGCG (0-60 μM). After 7 days, spheroids were collected and cell suspensions were prepared and viable cells were counted by trypan blue assay.
(§2) (A) Effects of EGCG and quercetin on spheroid and colony formation. […] CSCs were seeded in suspension and treated with EGCG (0-60 μM) with or without quercetin (20 μM) for 7 days. At the end of incubation period, all the spheroids were collected and resuspended. Cell viability was measured by trypan blue assay. […] Pancreatic CSCs were seeded in soft agar and treated with various doses of EGCG (0-60 μM) with or without quercetin (20 μM) and incubated at […] for 21 days. At the end of incubation period, colonies were counted. […] (B) Effects of EGCG and quercetin on invasion and migration. Upper panel, Matrigel invasion assay. CSCs were plated onto the Matrigel-coated membrane in the top chamber of the transwell and treated with EGCG (0-60 μM) with or without quercetin (20 μM) for 48 hrs. Cells invaded to the lower chambered were fixed with methanol, stained with crystal violet and counted. […] Lower panel, Transwell migration assay. Pancreatic CSCs were plated in the top chamber of the transwell and treated with EGCG (0-60 μM) with or without quercetin (20 μM) for 48 hrs. Cells migrated to the lower chambered were fixed with methanol, stained with crystal violet and counted. […] CSCs were seeded in suspension and treated with EGCG (0-60 μM) with or without quercetin (20 μM) for 7 days. At the end of incubation period, all the spheroids were collected.

For assay [3], the system named is Pancreatic CSCs. The assay is described as follows: colony formation in soft agar. The class given is cell-based, human. As to conditions: 21 days. How it is done: as §1, §2
At the end of incubation period, all the spheroids were collected and resuspended. Cell viability was measured by trypan blue assay. […] At the end of incubation period, colonies were counted.

The subject of assay [4] is Pancreatic CSCs. The assay is described as follows: cell viability, trypan blue, Vi-CELL analyzer. The class given is cell-based, human. As to conditions: 3 days. As to the method:
Pancreatic CSCs were treated with resveratrol (0-20 μM), curcumin (0-20 μM), honokiol (0-20 μM) and diallyl trisulphide (0-20 μM) for 3 days, and cell viability was measured by staining with trypan blue using Vi-CELL analyzer (Beckman Counter).
Pancreatic CSCs were treated with sulforaphane (0-20 μM), rottlerin (0-2 μM), EGCG (0-60 μM) and embelin (0-5 μM) for 3 days, and cell viability was measured by staining with trypan blue using Vi-CELL analyzer (Beckman Counter).
(A) Pancreatic CSCs were treated with SAHA (3 and 5 μM) and 5-Aza-dc (2 and 4 μM) and cell viability was measured at 48 h by staining with trypan blue using Vi-CELL analyzer (Beckman Counter). (B) Pancreatic CSCs were untreated (a) or treated with SAHA (b) or 5-Aza-dC (c) for 48 h, and apoptosis was measured by staining with annexin-PI using Accuri Flow Cytometer. (C) Caspase-3/7 activity was measured in pancreatic CSCs treated with SAHA (0.5 and 2 μM) or 5-Aza-dC (1 and 3 μM) for 25 h.
Pancreatic CSCs were treated with resveratrol (0-20 μM), curcumin (0-20 μM), honokiol (0-20 μM), and diallyl trisulphide (0-20 μM) for 3 days and cell viability was measured by staining with trypan blue using Vi-CELL analyzer. The results of those studies are illustrated in FIG. 27.
Pancreatic CSCs were treated with sulforaphane (0-20 μM), rottlerin (0-2 μM), EGCG (0-60 μM), and embelin (0-5 μM) for 3 days and cell viability was measured by staining with trypan blue using Vi-CELL analyzer. The results of those studies are illustrated in FIG. 28.
Pancreatic CSCs were treated with SAHA […] Vorinostat (3 and 5 μM) and 5-Aza-2′-deoxycytidine (5-Aza-dC, 2 and 4 μM) and cell viability was measured at 48 hours by staining with trypan blue using Vi-CELL analyzer. The results of those studies are illustrated in FIG. 31A.

The mark [5] stands for this setting: EGCG 0-60 μM with or without quercetin 20 μM.

Experimental findings from patent US20160374944A1, “COMPOSITIONS AND METHODS FOR TREATING AND PREVENTING CANCER BY TARGETING AND INHIBITING CANCER STEM CELLS” (priority 2011, published 2016) are described below.

As to `O=C(O[C@@H]1Cc2c(O)cc(O)cc2O[C@@H]1c1cc(O)c(O)c(O)c1)c1cc(O)c(O)c(O)c1` [EGCG, epigallocatechin gallate], the cell viability result in assay [1] and in assay [4] was “inhibit cell viability” in each case. Also, the “CSC viability in spheroids” value in assay [2] (CSCs transduced with Nanog shRNA, EGCG 0-60 μM, 7 days) was “further enhanced the antiproliferative effects”; in assay [2] (CSCs transduced with scrambled shRNA, EGCG 0-60 μM, 7 days), “inhibited CSC's viability in spheroids transduced with Nanog-scrambled shRNA in a dose-dependent manner”. Further, the “cell viability in spheroids” value in assay [2] (7 days) is “inhibited cell viability in spheroids, colony formation, migration and invasion by CSCs in a dose-dependent manner”. Besides, the “growth (size) of spheroids in suspension” value in assay [2] (EGCG 0-60 μM, 7 days) was “inhibited the growth (size) of spheroids in suspension in a dose dependent manner”. For the same molecule, the “CSC viability in primary and secondary spheroids” value in assay [2] (EGCG 0-60 μM, 7 days each, trypan blue) is “inhibited CSC's viability in primary and secondary spheroids in a dose-dependent manner”. For the same molecule, the colony formation result in assay [3] (setting [5]) is “inhibited cell viability in spheroids, colony formation, migration and invasion by CSCs in a dose-dependent manner”. Further, the growth of colonies result in assay [3] (EGCG) was “inhibited the growth of colonies in a dose-dependent manner”.
With `O=c1c(O)c(-c2ccc(O)c(O)c2)oc2cc(O)cc(O)c12` [quercetin], in assay [2] (7 days), the “cell viability in spheroids” value was “effective alone”. Also, the colony formation result in assay [3] (setting [5]) and in assay [3] (SFN with or without quercetin) was “effective alone” in each case.
For the molecule `CC(=O)c1c(O)c(C)c(O)c(Cc2c(O)c3c(c(C(=O)/C=C/c4ccccc4)c2O)OC(C)(C)C=C3)c1O` [rottlerin], the cell viability result in assay [1] and in assay [4] was “inhibit cell viability” throughout. Besides, the “size of primary and secondary spheroids in suspension” value in assay [2] (rottlerin 0-2 μM, 7 and 14 days) is listed as “inhibited the size”. Also, the “cell viability of spheroids” value in assay [2] (rottlerin 0-2 μM, 7 and 14 days, trypan blue) is on record as “inhibited”.
Turning to `C[S+]([O-])CCCCN=C=S` (stereo not shown) [sulforaphane], the cell viability entry in assay [1] and in assay [4] was “inhibit cell viability” throughout. Also, the colony formation entry in assay [3] (SFN with or without quercetin) was “inhibited the cell viability and colony formation of pancreatic CSCs in a dose-dependent manner”.
